Remaining activity data for 30 molecules are collected here from article PMC8286840, “Identifying SARS-CoV-2 antiviral compounds by screening for small molecule inhibitors of Nsp3 papain-like protease” (Biochemical Journal, 2021).

Molecules are shown by their SMILES. Where a name gives a salt, the structure may show the parent alone. Read-outs that look alike come from different tables or passages of the source.

Assay [1] concerns the target T1, SARS-CoV-2 PLpro (nsp3 1564–1878) (Severe acute respiratory syndrome coronavirus 2, UniProt P0DTD1). Briefly: biochemical. More on the design: FRET-quenched peptide (Pro3) cleavage by PLpro, 10 min pre-incubation, slope over 20 min, normalised to no-compound control. The settings on record: low concentration screen, read-out: % of control remaining.
Assay [2] concerns the target T1, SARS-CoV-2 PLpro (nsp3 1564–1878). Briefly: biochemical. Also noted: FRET-quenched peptide (Pro3) cleavage by PLpro, 10 min pre-incubation, slope over 20 min, normalised to no-compound control. As to conditions: high concentration screen, read-out: % of control remaining.

On to `Cc1c(Cn2c(C)nc3c(C(=O)O)cc(N4CCOCC4)cc32)cccc1C(F)(F)F` [GSK2636771], for which the remaining activity at 1.25 µM in assay [1] (Well no.=5178) worked out at 93.1%. Further, in assay [2] (Well no.=5178), the remaining activity at 3.75 µM amounted to 96.9%.

As to `CCc1ccc(N(CC(C)C)S(=O)(=O)c2ccc(OCC3CCOCC3)c(CO)c2)cc1` [GSK2981278], the remaining activity at 1.25 µM in assay [1] (Well no.=8561) worked out at 105%. Besides, the remaining activity at 3.75 µM in assay [2] (Well no.=8561) came to 101%.

Consider `CN1C(=O)[C@@H](NC(=O)c2n[nH]c(Cc3ccccc3)n2)COc2ccccc21` [GSK2982772], for which the remaining activity at 1.25 µM in assay [1] (Well no.=7074) is 96.7%. In addition, in assay [2] (Well no.=7074), the remaining activity at 3.75 µM turned out to be 95.1%.

As to `O=C(O)c1ccc(-c2c[nH]c3ncc(-c4ccccc4)cc23)cc1C1CCCC1` [GSK 650394 - 2-Cyclopentyl-4-(5-phenyl-1H-pyrrolo[2,3-b]pyridin-3-yl-benzoic acid], in assay [1] (Well no.=2676), the remaining activity at 1.25 µM stood at 96.9%. Besides, in assay [2] (Well no.=2676), the remaining activity at 3.75 µM was found to be 99.7%.

`CN1C(=O)[C@@H](NC(=O)c2cc(Cc3ccccc3)on2)COc2ccccc21` [GSK'481]: the remaining activity at 1.25 µM in assay [1] (Well no.=6534) was 104%. The remaining activity at 3.75 µM in assay [2] (Well no.=6534) was found to be 98.7%.

Take `Cn1c(O)c(-c2[nH]c3ccccc3c2N=O)c2ccc(Br)cc21` [GSK-3 Inhibitor IX, Control, MeBIO]: the remaining activity at 1.25 µM in assay [1] (Well no.=2427) was 106%. In addition, in assay [2] (Well no.=2427), the remaining activity at 3.75 µM amounted to 108%.

As to `O=Nc1c(-c2c(O)[nH]c3cc(Br)ccc23)[nH]c2ccccc12` [GSK-3 Inhibitor IX], in assay [1] (Well no.=2466), the remaining activity at 1.25 µM was found to be 95.8%. The remaining activity at 3.75 µM in assay [2] (Well no.=2466) stood at 98.6%.

Turning to `Cc1cc(Nc2nc(-c3ccccc3)nc3ccccc23)n[nH]1` [GSK-3 Inhibitor XIII], in assay [1] (Well no.=2502), the remaining activity at 1.25 µM came out at 94.8%. In addition, the remaining activity at 3.75 µM in assay [2] (Well no.=2502) amounted to 96.8%.

For the molecule `CC(=O)O/N=C1/C(c2c(O)[nH]c3cc(Br)ccc23)=Nc2ccccc21` [GSK-3 Inhibitor X], the remaining activity at 1.25 µM in assay [1] (Well no.=2468) came out at 101%. The remaining activity at 3.75 µM in assay [2] (Well no.=2468) is 105%.

On to `Cn1sc(=O)n(Cc2ccccc2)c1=O` [GSK-3b Inhibitor I], for which the remaining activity at 1.25 µM in assay [1] (Well no.=2460) is 106%. Moreover, the remaining activity at 3.75 µM in assay [2] (Well no.=2460) amounted to 108%.

`O=C1NC(=O)C(c2cn(CCCO)c3ncccc23)=C1c1cnccn1` [GSK-3b Inhibitor XI]: the remaining activity at 1.25 µM in assay [1] (Well no.=2470) is 101%. Also, in assay [2] (Well no.=2470), the remaining activity at 3.75 µM was found to be 102%.

With `CC(C)S(=O)(=O)c1ccc2nccc(Nc3ccc4scnc4c3)c2c1` [GSK-872], the remaining activity at 1.25 µM in assay [1] (Well no.=6584) was 96.3%. In assay [2] (Well no.=6584), the remaining activity at 3.75 µM came to 108%.

Turning to `CCOC(=O)CCNc1cc(N2CCc3ccccc3CC2)nc(-c2ccccn2)n1` [GSK-J4], the remaining activity at 1.25 µM in assay [1] (Well no.=5779) amounted to 106%. In addition, the remaining activity at 3.75 µM in assay [2] (Well no.=5779) was 106%.

In the case of `c1ccc(-c2n[nH]c3c2oc2ccccc23)cc1` [GTP-14564], in assay [1] (Well no.=2417), the remaining activity at 1.25 µM was 104%. The remaining activity at 3.75 µM in assay [2] (Well no.=2417) was 105%.

As for `Cc1cc(SCc2sc(-c3ccc(C(F)(F)F)c(F)c3)nc2C)ccc1OCC(=O)O` [GW0742], in assay [1] (Well no.=5214), the remaining activity at 1.25 µM is 100%. Moreover, in assay [2] (Well no.=5214), the remaining activity at 3.75 µM came out at 98.5%.

Regarding `CN(CCOc1ccc(C[C@H](Nc2ccccc2C(=O)c2ccccc2)C(=O)O)cc1)c1ccccn1` [GW1929], the remaining activity at 1.25 µM in assay [1] (Well no.=8120) amounted to 97.1%. Besides, the remaining activity at 3.75 µM in assay [2] (Well no.=477) worked out at 96.6%; in assay [2] (Well no.=8120) it was 94.2%.

In the case of `CN(C)c1cc2c(Nc3ccc4c(cnn4Cc4ccccc4)c3)ncnc2cn1` [GW2974], the remaining activity at 1.25 µM in assay [1] (Well no.=523) came to 103%. In addition, in assay [2] (Well no.=523), the remaining activity at 3.75 µM stood at 100%.

Consider `CC(C)c1onc(-c2c(Cl)cccc2Cl)c1COc1ccc(/C=C/c2cccc(C(=O)O)c2)c(Cl)c1` [GW4064], for which the remaining activity at 1.25 µM in assay [1] (Well no.=5314) is 101%. Besides, the remaining activity at 3.75 µM in assay [2] (Well no.=5314) was found to be 98.2%.

Regarding `O=C1Nc2ccc(I)cc2/C1=C/c1cc(Br)c(O)c(Br)c1` [GW5074], the remaining activity at 1.25 µM in assay [1] (Well no.=525) stood at 97.2%. For the same molecule, the remaining activity at 3.75 µM in assay [2] (Well no.=525) stood at 96.1%.

As for `CC(C)(Sc1ccc(CCN(CCCCC2CCCCC2)C(=O)NC2CCCCC2)cc1)C(=O)O` [GW7647], the remaining activity at 1.25 µM in assay [1] (Well no.=621) is 95.2%. In addition, in assay [2] (Well no.=621), the remaining activity at 3.75 µM stood at 96.3%.

Turning to `O=C(O)CCc1ccc(NCc2cccc(Oc3ccccc3)c2)cc1` [GW9508], the remaining activity at 1.25 µM in assay [1] (Well no.=5182) worked out at 103%; in assay [1] (Well no.=8531), 97.9%. Further, the remaining activity at 3.75 µM in assay [2] (Well no.=5182) was determined as 99.8%; in assay [2] (Well no.=8531), 98.8%.

On to `O=C(Nc1ccccc1)c1cc([N+](=O)[O-])ccc1Cl` [GW9662], for which the remaining activity at 1.25 µM in assay [1] (Well no.=1122) was found to be 88.3%. For the same molecule, in assay [2] (Well no.=1122), the remaining activity at 3.75 µM was 89.4%.

With `Cn1cc(/C=C2\C(=O)Nc3cccnc32)c2ccccc21` [GW441756], the remaining activity at 1.25 µM in assay [1] (Well no.=2791) was determined as 103%. The remaining activity at 3.75 µM in assay [2] (Well no.=2791) is 103%.

For the molecule `O=C(NC1CCOCC1)c1ccc(-c2cc(-c3c[nH]nc3-c3ccccn3)ccn2)cc1` [GW788388], the remaining activity at 1.25 µM in assay [1] (Well no.=5067) is 102%. Also, the remaining activity at 3.75 µM in assay [2] (Well no.=5067) came out at 106%.

Regarding `O=C(NCC1CCOCC1)c1cnc(Nc2ccc(Cl)cc2Cl)nc1C(F)(F)F` [GW842166X], in assay [1] (Well no.=5085), the remaining activity at 1.25 µM is 97.9%. In addition, in assay [2] (Well no.=5085), the remaining activity at 3.75 µM was found to be 100%.

Turning to `O=C1Nc2ccc(I)cc2/C1=C/c1cc(Br)c(O)c(Br)c1` [GW 5074 - 3-(3,5-Dibromo-4-hydroxy-benzylidene)-5-iodo-1,3-dihydro-indol-2-one], the remaining activity at 1.25 µM in assay [1] (Well no.=2392) amounted to 97.9%. The remaining activity at 3.75 µM in assay [2] (Well no.=2392) is 101%.

As for `Cn1cc(/C=C2\C(=O)Nc3cccnc32)c2ccccc21` [GW 441756 - 1,3-Dihydro-3-[(1-methyl-1H-indol-3-yl)methylene]-2H-pyrrolo[3,2-b]pyridin-2-one], in assay [1] (Well no.=2488), the remaining activity at 1.25 µM turned out to be 102%. Also, the remaining activity at 3.75 µM in assay [2] (Well no.=2488) worked out at 100%.

Regarding `CS(=O)(=O)CCNCc1nc(-c2ccc3ncnc(Nc4ccc(OCc5cccc(F)c5)c(Cl)c4)c3c2)cs1` [GW 583340 dihydrochloride - N-[3-Chloro-4-[(3-fluorophenyl)methoxy]phenyl]-6-[2-[[[2-(methylsulfonyl)ethyl]amino]methyl]-4-thiazolyl]-4-quinazolinamine dihydrochloride], the remaining activity at 1.25 µM in assay [1] (Well no.=2490) worked out at 94.4%. In addition, in assay [2] (Well no.=2490), the remaining activity at 3.75 µM came to 94.9%.

`NC(=O)c1ccc(CNC(=O)NC[C@H]2CN(Cc3ccc(Cl)c(Cl)c3)CCO2)cc1` [GW 766994]: the remaining activity at 1.25 µM in assay [1] (Well no.=8595) is 104%. Further, the remaining activity at 3.75 µM in assay [2] (Well no.=8595) was 103%.

In the case of `COc1cc2ncn(-c3cc(OCc4ccccc4C(F)(F)F)c(C(N)=O)s3)c2cc1OC` [GW 843682X - 5-(5,6-Dimethoxy-1H-benzimidazol-1-yl)-3-[[2-(trifluoromethyl)phenyl]methoxy]-2-thiophenecarboxamide], the remaining activity at 1.25 µM in assay [1] (Well no.=2668) amounted to 92.6%. In assay [2] (Well no.=2668), the remaining activity at 3.75 µM stood at 96.9%.
